From paper PMC12472947 (Pharmaceuticals, 2025)
Values joined by “and” are separate entries in the source; they are usually repeats but may differ in a detail not shown here. Identical values can stand only once. “Also recorded” adds a separate entry of the source. Like-named read-outs stand apart in the source and are kept apart here.

What was measured:
[1] = molecular target: electric eel AChE [EeAChE] (Electrophorus electricus, UniProt O42275); assay: biochemical; assay type: biochemical; details: for IC50: Electric eel AChE, Ellman method, read-out: IC50(nM) ± SD AChE (EeAChE); for SI: Selectivity Index = EqBChE IC50/EeAChE IC50
electric eel AChE [EeAChE], sequence (O42275 24-633): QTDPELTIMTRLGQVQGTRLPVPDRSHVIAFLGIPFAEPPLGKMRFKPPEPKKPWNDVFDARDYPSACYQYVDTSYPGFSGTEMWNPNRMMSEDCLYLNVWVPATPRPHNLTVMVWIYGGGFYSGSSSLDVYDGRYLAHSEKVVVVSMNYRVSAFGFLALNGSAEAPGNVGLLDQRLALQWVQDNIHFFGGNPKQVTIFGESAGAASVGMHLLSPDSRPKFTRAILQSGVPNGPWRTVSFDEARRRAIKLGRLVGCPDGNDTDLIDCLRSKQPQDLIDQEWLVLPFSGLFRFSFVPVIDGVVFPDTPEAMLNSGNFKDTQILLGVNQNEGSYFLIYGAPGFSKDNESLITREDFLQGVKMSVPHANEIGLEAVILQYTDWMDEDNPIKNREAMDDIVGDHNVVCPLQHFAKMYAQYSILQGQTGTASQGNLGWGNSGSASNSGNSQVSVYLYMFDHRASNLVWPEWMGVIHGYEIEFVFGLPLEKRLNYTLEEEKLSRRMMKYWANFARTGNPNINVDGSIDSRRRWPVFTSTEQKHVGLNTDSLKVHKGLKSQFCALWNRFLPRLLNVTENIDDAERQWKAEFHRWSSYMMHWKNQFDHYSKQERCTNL
Method: (§1) The anticholinesterase activity was determined using Ellman’s method, adapted as follows. […] Subsequently, 60 μL of 5,5′-dithiobis(2-nitrobenzoic acid) (DTNB, 1.1 mM) and 30 μL of enzyme solution (electric eel AChE [EeAChE], human AChE [hAChE], or equine serum BChE [EqBChE], 0.20 U/mL) containing 1 mg/mL bovine serum albumin (BSA) were added. […] Enzyme activity was calculated as the percentage relative to untreated controls, subtracting the blank reference. IC50 values were derived via non-linear regression analysis of dose–response curves (Figure S4) using GraphPad Prism v7.0.

[2] = molecular target: T1, equine serum BChE [EqBChE] (Equus caballus, UniProt P81908); assay: biochemical; details: Ellman method, read-out: IC50(nM) ± SD BChE (EqBChE)
T1 construct: equine serum BChE [EqBChE]; from tissue; host or cells: equine serum
T1 sequence (P81908 whole entry): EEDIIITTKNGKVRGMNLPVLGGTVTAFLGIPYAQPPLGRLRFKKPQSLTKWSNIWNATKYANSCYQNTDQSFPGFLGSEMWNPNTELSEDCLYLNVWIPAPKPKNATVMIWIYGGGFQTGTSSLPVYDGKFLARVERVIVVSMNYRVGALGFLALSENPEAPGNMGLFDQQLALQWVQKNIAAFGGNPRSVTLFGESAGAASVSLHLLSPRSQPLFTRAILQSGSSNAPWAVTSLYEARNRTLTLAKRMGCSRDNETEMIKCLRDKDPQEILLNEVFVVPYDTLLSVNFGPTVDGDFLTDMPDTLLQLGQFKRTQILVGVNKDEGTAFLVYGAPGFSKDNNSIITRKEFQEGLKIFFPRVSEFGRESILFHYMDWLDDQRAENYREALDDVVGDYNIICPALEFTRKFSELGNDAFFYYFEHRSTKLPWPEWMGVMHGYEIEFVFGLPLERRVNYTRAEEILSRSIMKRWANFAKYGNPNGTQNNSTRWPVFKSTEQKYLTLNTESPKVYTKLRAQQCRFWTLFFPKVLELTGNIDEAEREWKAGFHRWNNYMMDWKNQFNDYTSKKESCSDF
Method: as §1

[3] = molecular target: electric eel acetylcholinesterase (EeAChE) (Electrophorus electricus, UniProt O42275); assay: Enzymatic kinetic study, EeAChE; assay type: biochemical; details: AChE; for α ± SE (95% CI): global non-linear regression, mixed inhibition (Table S3)
electric eel acetylcholinesterase (EeAChE), sequence (O42275 24-633): as the sequence (O42275 24-633) above
Method: (§2) The enzymatic kinetics of cholinesterase inhibition were determined according to an adapted Ellman’s method. All of the solutions were prepared at 20 °C in 0.02 M Tris-HCl buffer (pH 7.5; ionic strength ~0.02 M), stock solutions of test compounds were prepared in DMSO:EtOH (7:3) mixture (20 mM), and the experiment was conducted in triplicate. To a flat-bottom 96-well transparent plate (path length of 0.6 cm) were added 150 μL of treatment solutions with inhibitors 1a, 1h, and 1j at two different concentrations (Table S1) distributed in eight sets of triplicate each. Eight sets of untreated triplicates were used as a negative control. Following, there were added 60 μL of 5,5′-Dithiobis(2-nitrobenzoic acid) (DTNB, Ellman’s reagent) at 1.1 mM and 30 μL of electric eel acetylcholinesterase (EeAChE) or equine serum butyrylcholinesterase (EqBuChE) at 0.20 U/mL in the presence of 1 mg/mL bovine serum albumin (BSA). […] Ki, Ki’ (competitive and noncompetitive inhibition constants, respectively), Km (Michaelis-Menten constant), and Vmax values were calculated with Graphpad Prism v7.0 using the non-linear regression models for enzyme kinetics inhibition and enzyme kinetics–substrate vs. velocity.

[4] = molecular target: T2, equine serum butyrylcholinesterase (EqBuChE) (Equus caballus, UniProt P81908); assay: Enzymatic kinetic study, EqBChE; assay type: biochemical; details: BChE; for α ± SE (95% CI): global non-linear regression, mixed inhibition (Table S3)
T2 construct: equine serum BChE [EqBChE]; from tissue; host or cells: equine serum
T2 sequence (P81908 whole entry): as the sequence (P81908 whole entry) above
Method: as §2

human AChE [hAChE] = human AChE [hAChE] (Homo sapiens, UniProt P22303); assay: biochemical
human AChE [hAChE], sequence (P22303 32-614): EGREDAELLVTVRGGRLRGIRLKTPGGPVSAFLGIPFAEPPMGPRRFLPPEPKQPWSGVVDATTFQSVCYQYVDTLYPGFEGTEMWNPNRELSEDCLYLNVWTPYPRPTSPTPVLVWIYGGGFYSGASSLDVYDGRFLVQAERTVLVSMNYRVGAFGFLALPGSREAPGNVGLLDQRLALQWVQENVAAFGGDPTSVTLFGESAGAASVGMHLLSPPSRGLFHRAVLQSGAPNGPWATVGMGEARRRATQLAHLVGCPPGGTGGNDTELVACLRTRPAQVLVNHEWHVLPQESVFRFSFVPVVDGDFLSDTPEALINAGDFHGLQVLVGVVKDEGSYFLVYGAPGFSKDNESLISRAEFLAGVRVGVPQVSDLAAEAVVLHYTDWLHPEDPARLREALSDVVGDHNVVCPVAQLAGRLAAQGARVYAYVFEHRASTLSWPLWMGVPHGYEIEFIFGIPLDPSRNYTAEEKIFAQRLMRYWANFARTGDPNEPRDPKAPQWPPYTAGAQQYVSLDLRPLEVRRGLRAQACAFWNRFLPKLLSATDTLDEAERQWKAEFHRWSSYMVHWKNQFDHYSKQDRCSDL
Method: as §1

[5] = Cytotoxicity (neurotoxicity) MTT assay in SH-SY5Y; assay type: cell-based; details: human, SH-SY5Y neuroblastoma cells; for viability at 24 h, 12.5 µM / viability at 24 h, 25 µM / viability at 24 h, 50 µM: MTT, read-out: Cell viability (% of control); for viability at 24 h: up to 25 μM, read-out: cell viability
Method: (§3) The immortalized human neuroblastoma cell line (SH-SY5Y–ATCC: CRL-2226; BCRJ:0223) was used to evaluate cytotoxicity. The cell line was cultured in Dulbecco’s Modified Eagle’s Medium and F12 in a 1:1 ratio (DMEM:F12; Sigma-Aldrich code 0697, Brazil) supplemented with 10% fetal bovine serum (FBS; Sigma-Aldrich code F2442, Brazil) and 1% streptomycin/penicillin (10,000 U/mL and 10,000 μg/mL, respectively; Nova Biotecnologia code BR30110-01, Cotia, SP, Brazil) and incubated at 37 °C with 5% CO2. The culture medium was replaced every 48 h, until the cells reached semi-confluence (≥70%). Cell passage was carried out with the aid of trypsin-EDTA/0.25% solution (Nova Biotecnologia, Brazil) and divided between 5 or 8 mL culture volumes depending on the respective bottles (25 or 75 cm^2) used.
(§4) The in vitro cytotoxicity assay evaluated cell viability using the [3-(4,5-dimethylthiazol-2yl)-2,5-diphenyl tetrazolium] bromide (MTT) reduction assay. Cells were seeded at an initial density of 5.0 × 10^4 cells/well in 96-well plates in a volume of 200 µL. […] In the next step, the culture medium was replaced by the sample solution previously described (Section 3.4.2). After 24 h exposure, the medium was replaced with 100 μL of MTT in phosphate-buffer saline (PBS), pH 7.4, at a concentration of 0.5 mg.mL^−1/well and the plates were incubated for an additional 3 h. Then, the MTT solution was removed, and 100 μL of DMSO was added to solubilize the formazan crystals. The cell viability was measured by absorbance at 562 nm using a Microplate Absorbance Reader (Kasuaki, Brazil). All concentrations tested were evaluated in nine replicates (n = 9). The variation in results was observed using ANOVA followed by Tukey’s test for multiple comparisons through GraphPad Prism v5^TM with a significance level of p < 0.05.

[6] = test system: SH-SY5Y neuroblastoma cells; assay: Cytotoxicity (neurotoxicity) MTT assay in SH-SY5Y; assay type: cell-based; details: up to 50 µM
Method: as §3, §4

[7] = test system: H2O2-damaged SH-SY5Y cells; assay: In vitro neuroprotection against H2O2 in SH-SY5Y (MTT); details: for viability at 12.5 µM: Homo sapiens, SH-SY5Y, read-out: Cell viability (% of control)
Method: For the neuroprotection assay, the cells previously cultured (Section 3.4.1) were seeded in 96-well plates at a density of 5 × 10^4 cells/well in a volume of 200 µL. The plates were incubated at 37 °C containing 5% CO2 for 24 h. After 24 h, the medium was replaced with the test solutions. […] Finally, the test solutions were removed, the cells were washed with PBS pH 7.4, and the H2O2 solution was added and maintained in contact with the cells for 24 h. After 24 h exposure, the neuroprotective capacity was assessed through cell viability using the MTT assay protocol previously described in Section 3.4.3 [52, 53].

[8] = enzyme-substrate complex, global non-linear regression (Table 2)
[9] = competitive inhibition constant (Table S2), read-out: Ki (nM) ± SD
[10] = free enzyme (Table S3), read-out: Ki ± SE (95% CI)

Row | Structure (SMILES) | IC50 [1] | SI [1] | IC50 [2] | α ± SE (95% CI) [3] | Ki [4, 9] | Ki [4, 10] | α ± SE (95% CI) [4] | viability at 24 h, 12.5 µM [5] | viability at 24 h, 25 µM [5] | viability at 24 h, 50 µM [5] | viability at 24 h [5] | neurotoxicity [6] | viability at 12.5 µM [7] | also measured
1 | O=c1oc2cc(OCCN3CCCCC3)ccc2cc1-c1cn(-c2ccccc2)nn1 [Compound 1a, 3-(1-Phenyl-1H-1,2,3-triazol-4-yl)-7-(2-(piperidin-1-yl)ethoxy)-2H-chromen-2-one] | 50 ± 2.04 nM | 173 | 8660 ± 150 nM | 2.001 ± 0.6489 | 3500 ± 64.9 nM | 3940 ± 227 nM | 2.883 ± 0.3970 | – | – | – | – | – | – | inhibition mechanism ([3]; Lineweaver-Burk plots): mixed-type inhibition; Ki′ ± SE (95% CI) ([3]; enzyme-substrate complex (Table S3)): 61.59 ± 20.04 nM; Ki’ (nM) ± SE [3, 8]: 61.59 ± 20.04 nM; Ki ([3]; free enzyme, global non-linear regression to mixed-inhibition equation (Table 2), read-out: Ki (nM) ± SE): 30.8 ± 5.38 nM; Vmax ± SD ([3]; inhibitor 0.02 μM): 2.78 ± 0.044 1 × 10^3 nM/min and 2.78 ± 0.04 1 × 10^3 nM/min; Vmax ± SD ([3]; inhibitor 0.06 μM): 2.06 ± 0.031 1 × 10^3 nM/min and 2.06 ± 0.03 1 × 10^3 nM/min; inhibition mechanism ([4]; Lineweaver-Burk plots): mixed-type inhibition; Ki’ (nM) ± SE [4, 8]: 11,400 ± 1100 nM; Ki ([4]; free enzyme, global non-linear regression (Table 2), read-out: Ki (nM) ± SE): 3940 ± 230 nM; Vmax ± SD ([4]; inhibitor 4 μM): 11.69 ± 0.201 1 × 10^3 nM/min and 11.69 ± 0.20 1 × 10^3 nM/min; Vmax ± SD ([4]; inhibitor 8 μM): 8.24 ± 0.212 1 × 10^3 nM/min and 8.24 ± 0.21 1 × 10^3 nM/min
2 | COc1cccc(Cn2cc(-c3cc4ccc(OCCN5CCCCC5)cc4oc3=O)nn2)c1 [Compound 1j, 3-(1-(3-Methoxybenzyl)-1H-1,2,3-triazol-4-yl)-7-(2-(piperidin-1-yl)ethoxy)-2H-chromen-2-one] | 4.16 ± 0.11 nM | 686 | 2880 ± 120 nM | 4.248 ± 1.415 | 615 ± 0.58 nM | 944 ± 200 nM | 3.349 ± 1.984 | 71% | 70% | 63% | ≥ 70% | non-neurotoxic; also recorded: neurotoxicity in high concentrations | 68% | IC50 (human AChE [hAChE]; Human AChE, Ellman method, read-out: IC50(nM) ± SD AChE (hAChE) (converted)): 12.5 nM; SI (human AChE [hAChE]; SI = EqBChE IC50/hAChE): 222; Ki [3, 9]: 0.508 ± 0.0001 nM; Ki ([3]; corrected for tight-binding using the Morrison equation (Table S3), read-out: Ki ± SE (95% CI)): 0.637 nM; Vmax ± SD ([3]; inhibitor 0.003 μM): 5.21 ± 0.0656 1 × 10^3 nM/min; Vmax ± SD ([3]; inhibitor 0.005 μM): 3.90 ± 0.1517 1 × 10^3 nM/min; Vmax ± SD ([4]; inhibitor 1.9 μM): 5.97 ± 0.1562 1 × 10^3 nM/min; Vmax ± SD ([4]; inhibitor 3.9 μM): 4.12 ± 0.2257 1 × 10^3 nM/min
3 | COc1ccc(Cn2cc(-c3cc4ccc(OCCN5CCCCC5)cc4oc3=O)nn2)cc1 [Compound 1k, 3-(1-(4-Methoxybenzyl)-1H-1,2,3-triazol-4-yl)-7-(2-(piperidin-1-yl)ethoxy)-2H-chromen-2-one] | 4.58 ± 0.62 nM | 443 | 2080 ± 99 nM | – | – | – | – | 99% | 106% | 84% | ≥ 70% | non-neurotoxic | 92% | neuroprotection against H2O2-induced oxidative stress ([7]; 12.5 µM): neuroprotective effects
